Experimental findings from patent US20180273482A1, “COMPOSITIONS AND METHODS FOR INCREASING, OR PREVENTING OR REVERSING LOSS OF, SKIN PIGMENTATION IN A MAMMALIAN SUBJECT” (THE TRUSTEES OF THE UNIVERSITY OF PENNSYLVANIA, priority 2015, published 2018) are described below.

Structures are written as SMILES.

The assay has as its system C57BL/6 mice ear skin. The assay can be described thus: Topical G-1 treatment of mouse ear skin. The class given is in vivo. As to conditions: 2% G-1 topical, 3 weeks. As to the method:
2×10^5 melanocytes were seeded uniformly on 6-well tissue culture plates. […] For tissue melanin assays, tissue was weighed prior to boiling in 1M NaOH for 20 minutes.
2% (w/v) G-1 was prepared in DMSO. 20 μL of this solution was applied daily to the right ear, with vehicle only applied to the left ear, of 4-week-old C57BL/6 mice. These studies were performed without inclusion/exclusion criteria, randomization, or blinding. Based on a two-fold anticipated effect, this experiment was performed with 3 biological replicates.

`CC(=O)c1ccc2c(c1)[C@@H]1C=CC[C@@H]1[C@H](c1cc3c(cc1Br)OCO3)N2` (racemic) [G-1, rel-1-[4-(6-bromo-1,3-benzodioxol-5-yl)-3aR,4S,5,9bS-tetrahydro-3H-cyclopenta[c]quinolin-8-yl]-ethanone]: the “pigment in treated ears compared to vehicle” value is “increased pigment”. The “melanin content of treated tissue vs controls” value (right ear, whole ear tissue melanin assay) was found to be 1.6 fold.
